Measurements: PubChem BioAssay (NCI)
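Grown in 96-well plates, cells were treated for 48 hours with each compound at five concentrations. Insufficient inhibition: endpoint recorded as highest concentration tested. GI50: concentration for 50% inhibition of growth. Definition used: TGI = concentration required for complete inhibition of growth.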

What was measured:
Experiment in all cases: NCI anticancer screen, dose series, 48 h
PC-3 prostate = tested on: PC-3 prostate
NCI-H226 lung = tested on: NCI-H226 lung
HOP-92 NSCLC = tested on: HOP-92 NSCLC
MDA-MB-435 = tested on: MDA-MB-435
OVCAR-4 ovarian = tested on: OVCAR-4 ovarian
IGROV1 ovarian = tested on: IGROV1 ovarian
OVCAR-8 ovarian = tested on: OVCAR-8 ovarian
M14 melanoma = tested on: M14 melanoma
SF-295 CNS = tested on: SF-295 CNS
CCRF-CEM leukemia = tested on: CCRF-CEM leukemia

| SMILES | GI50 (PC-3 prostate) [µM] | TGI (PC-3 prostate) [µM] | GI50 (NCI-H226 lung) [µM] | TGI (NCI-H226 lung) [µM] | GI50 (HOP-92 NSCLC) [µM] | TGI (HOP-92 NSCLC) [µM] | GI50 (MDA-MB-435) [µM] | TGI (MDA-MB-435) [µM] | GI50 (OVCAR-4 ovarian) [µM] | TGI (OVCAR-4 ovarian) [µM] | GI50 (IGROV1 ovarian) [µM] | TGI (IGROV1 ovarian) [µM] | GI50 (OVCAR-8 ovarian) [µM] | TGI (OVCAR-8 ovarian) [µM] | GI50 (M14 melanoma) [µM] | TGI (M14 melanoma) [µM] | GI50 (SF-295 CNS) [µM] | TGI (SF-295 CNS) [µM] | TGI (CCRF-CEM leukemia) [µM] | GI50 (CCRF-CEM leukemia) [µM] |
| --- | --- | --- | --- | --- | --- | --- | --- | --- | --- | --- | --- | --- | --- | --- | --- | --- | --- | --- | --- | --- |
| COc1cc(OC)c(NC(=O)c2cc3ccccc3cc2O)cc1Cl | 2.13 | 8.02 | 3.32 | 17.7 | 1.55 | 4.89 | 2.84 | 9.69 | 3 | > 100 | 2.03 | 11.2 | 2.88 | 8.45 | 3.03 | 13.1 | 2.8 | 9.16 |  |  |
| CNC(=O)c1cccc2c(Nc3ccc(NS(C)(=O)=O)cc3OC)c3cccc(C)c3nc12 |  |  |  | 1.05 |  | 3.67 |  |  |  | 4.35 |  | 13.2 |  | 5.98 |  | 2.63 |  | 0.555 | 0.197 |  |
| C[n+]1ccc(-c2c3nc(c(-c4cc[n+](C)cc4)c4ccc([n-]4)c(-c4cc[n+](C)cc4)c4nc(c(-c5cc[n+](C)cc5)c5ccc2[n-]5)C=C4)C=C3)cc1.[I-].[Zn+2] |  |  | 14.9 | 48.3 |  |  |  |  | 2.43 | 10.4 | 25.4 | 57.8 | 23.6 | 61.1 | 14 | 35.5 | 38 | > 100 | 44.5 | 14.1 |
| CC(C)(C)OC(=O)NC(CO)c1cccc(OCc2ccccc2)c1 (configuration not stated) |  |  |  | > 100 |  | > 100 |  |  |  | > 100 |  | > 100 |  | > 100 |  | > 100 |  | > 100 | > 100 |  |
| O=c1oc(=O)c2oc3ccccc3oc1=2 |  |  |  | > 100 |  | > 100 |  |  |  | > 100 |  | > 100 |  | > 100 |  | > 100 |  | > 100 | > 100 |  |
| C/C(=C(\c1ccc(OCCN2CCCCCC2)cc1)c1ccc(OC(=O)Cc2ccccc2)cc1)c1ccc(Cl)cc1 |  |  | 2.94 | 7.32 |  |  | 2.46 | 4.66 | 2.82 | 7.05 | 2.8 | 6.51 | 3.24 | 6.35 | 1.87 | 4.15 | 2.56 | 4.97 | 10.5 | 3.2 |
| CSc1ncnc2c1ncn2C1OC(CO)C(O)OC1O (configuration not stated) |  | 33.9 |  |  |  | 22.7 |  | 23.8 |  | 96.3 |  | 18.9 |  | 52.4 |  | 39.1 |  | > 71.3 | 0.402 |  |
| COc1ccc(-c2nc(N3CCN(C(=O)C4CCCCC4)CC3)c3c4c(sc3n2)CCCC4)cc1 | 26.1 | > 100 | 41 | > 100 |  |  | > 100 | > 100 | > 100 | > 100 | 41.2 | > 100 | 46.4 | > 100 | > 100 | > 100 | 26.2 | 85.1 | > 100 | > 100 |
| O=C(NCc1ccco1)c1ccc(NC2=C(Cl)C(=O)N(Cc3ccccc3)C2=O)cc1 | 17.5 | 32.5 | 17.2 | 60.8 | 17.7 | 36 | 16.3 | 37.6 | 51.3 | > 100 | 2.12 | 35.2 | 42.5 | > 100 | 15.1 | 28.4 | 20.8 | 55.1 |  |  |
| COc1cccc2c1c(C1=C(c3cn(C)c4ccccc34)C(=O)NC1=O)cn2C | > 25 | > 25 | > 25 | > 25 |  |  | > 13.8 | > 25 | > 25 | > 25 | > 25 | > 25 | > 25 | > 25 | > 25 | > 25 | > 25 | > 25 | > 25 | > 25 |
| O=C(CCC(C(=O)c1ccccc1)c1ccccc1)c1ccccc1 (configuration not stated) | 7.94 | > 100 |  |  | 3.4 | 72.2 | 2.01 | 6.03 | 16.5 | > 100 | 32 | > 100 | 21.6 | > 100 | 6.82 | > 100 | 6.83 | > 100 | 77.2 | 3.97 |
| O=S(O)CCCSSc1ccccc1 |  |  |  |  |  |  |  |  |  | > 100 |  | 41.1 |  | > 100 |  | > 100 |  | > 100 | 93.3 |  |
| CC1=C[P+](Cc2ccccc2)(c2ccccc2)CC1 (configuration not stated) |  |  |  | > 100 |  |  |  |  |  | > 100 |  | > 100 |  | > 100 |  | > 100 |  | > 100 | > 100 |  |
| CCCCCCCCCCCCOC1C(C(CC(=O)N2CCN(c3cccc(C(F)(F)F)c3)CC2)NS(=O)(=O)c2cc(Cl)cc(Cl)c2)OC2OC(C)(C)OC21 (configuration not stated) | > 100 | > 100 | > 100 | > 100 | > 100 | > 100 | > 100 | > 100 | > 100 | > 100 | > 100 | > 100 | > 100 | > 100 | > 100 | > 100 | > 100 | > 100 |  |  |
| C=C(C)[C@@H]1CC[C@]2(CO)CC[C@]3(C)[C@H](CC[C@@H]4[C@@]5(C)CCC(NCCc6ccc(O)cc6)C(C)(C)[C@@H]5CC[C@]43C)[C@@H]12 (some centres not stated) | 1.3 | 2.64 |  |  | 1.46 | 2.95 | 1.43 | 2.77 | 1.7 | 3.18 |  |  |  |  | 1.6 | 3.05 |  |  | 4.14 | 1.67 |
| CCOC(=O)C(C)(C)C(O)C(C)C (configuration not stated) |  | > 100 |  |  |  | > 100 |  | > 100 |  | > 100 |  | > 100 |  | > 100 |  | > 100 |  | > 100 | > 100 |  |
| COc1ccc(OC(C(=O)O)c2ccccc2)c2c1CCCC2=O (configuration not stated) |  |  |  |  |  | > 100 |  |  |  | > 100 |  | > 100 |  | > 100 |  | > 100 |  | > 100 | > 100 |  |
